Molecules are shown by their SMILES. Where two headings read alike, the source gives them in different places.

The target in data set [1] is T1, hCB1 receptors (Homo sapiens, UniProt P21554).
T1 construct: expressed in transfected cells
In words: CB1 cAMP assay (inhibition of forskolin-stimulated cAMP accumulation). Format: cell-based. The following applies: for EC50: EC50 of 2-AG + Compound (1 μM), 2-AG in presence of 1 μM compound, forskolin 2 μM, HEK293 and/or CHO hCB1. On the procedure:
CB1 cAMP assays. Compounds are evaluated for their ability to modulate the actions of orthosteric ligands at CB1 receptor sites. HEK293 and/or CHO cells stably expressing hCB1 receptors were used for the studies. The CAMP assay was carried out using Perkin Elmer's Lance Ultra cAMP kit following the protocol as described in J Biomol Screen 1999, 4, (6), 303-308. The assays are carried out in a 384-well format using 1000-1500 cells/well. The cells are harvested with non-enzymatic cell dissociation reagent Versene, washed once with Hanks' Balanced Salt Solution (HBSS), and resuspended in the stimulation buffer. […] After 30 minutes of stimulation at room temperature, the Eu-CAMP tracer working solution (5 μL) and Ulight-anti-cAMP working solution (5 μL) are added to the plate and incubated at room temperature for 60 minutes. The data are collected via PerkinElmer Envision plate reader. The EC50 values are determined by nonlinear regression analysis using GraphPad Prism software (FIGS. 2A-2H).
In general terms: Changes in cAMP serve as a functional read-out for many G protein-coupled receptors.

Data set [2] addresses T2, human MGL (hMGL) (Homo sapiens, UniProt Q99685).
T2 construct: made in house; host or cells: E. coli (lysate)
T2 sequence (Q99685 1-303): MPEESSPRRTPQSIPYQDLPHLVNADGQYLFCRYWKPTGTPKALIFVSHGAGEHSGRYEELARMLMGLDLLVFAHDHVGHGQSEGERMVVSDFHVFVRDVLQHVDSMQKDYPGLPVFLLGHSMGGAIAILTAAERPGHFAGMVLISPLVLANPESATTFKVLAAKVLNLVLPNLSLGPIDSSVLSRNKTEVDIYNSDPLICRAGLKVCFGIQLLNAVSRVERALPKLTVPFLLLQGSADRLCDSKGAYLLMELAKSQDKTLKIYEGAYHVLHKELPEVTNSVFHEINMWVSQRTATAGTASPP
The experiment in a line: Fluorescent assay for human MGL inhibition. The note with it: for hMGL inhibition: at concentrations up to 10 μM, known commercial ligands. The class given is biochemical. As for the experimental part:
Fluorescent assay protocol for human MGL. Compound inhibition of hMGL activity was assessed by a fluorometric assay. The assay was carried out in a 96-well plate format and hMGL was monitored by the hydrolysis of the substrate […] or the substrate valeroyl-7-hydroxy-6-methoxy-4-methylcoumarin ester (VHMMCE) to form the fluorescent product, coumarin. Briefly, various concentrations of each compound were preincubated with hMGL (175 ng of total protein in E. coli lysate containing hMGL) for 15 minutes at room temperature. Upon the addition of the substrate, the reaction was incubated at […] for 120 minutes; fluorescence readings were taken every 15 minutes at 360 nm/460 nm (2excitation/λmission) using a Synergy HT Plate Reader (Bio-Tek, Winooski, Vt.). Under the incubation conditions, negligible substrate hydrolysis was observed. External standards were used to convert relative fluorescence units to the amount of 4-methylcoumarin formed. hMGL assays were performed in triplicate for each inhibitor concentration, and IC50 values were determined using Prizm software (FIGS. 1A-1G).

For data set [3], the target named is human CB1 (hCB1) (Homo sapiens, UniProt P21554). In words: Competition binding assay, [3H]CP55,940 displacement, hCB1 HEK293 membranes. The following applies: up to 100 nM; [3H]CP55,940 0.7 nM; 37 °C, 60 min. On the procedure:
Cell membrane preparation. Fresh or frozen HEK293 cell pellets (2×10^8 cells expressing human CB1 (hCB1) or rat CB1 (rCB1)) were resuspended in 5 ml of TME [25 mM Tris, 5 mM MgCl2, 1 mM EDTA pH 7.4] supplemented with 0.5% protease inhibitor cocktail (Sigma, St Louis, MO, USA). Cells were lysed under nitrogen cavitation for 30 min at 1000 psi on ice, centrifuged at 1000 g for 10 min, and the supernatant was collected. The pellet was washed three times with 10 ml of TME containing protease inhibitors and the combined supernatant was centrifuged at 100,000 g for 45 min at 4 °C. The resultant membrane pellet was used immediately or stored at −80 °C. Protein concentration for the resulting membrane fraction was obtained using Bradford Assay.
Competition Binding Assay. Competition binding assays were performed in a 96-well format. Assays were carried out using [3H] CP55,940 and Tris binding buffer (50 mM Tris-HCl, 50 mM Tris-base, 0.1% BSA, pH 7.4), up to a total assay volume of 500 μL. The concentration of [^3H]CP55,940 used in our displacement assays was 0.7 nM. […] Radioactivity was quantified by liquid scintillation spectrometry. […] Ki values were determined by fitting the data to non-linear regression curve using Graph Pad Prism software.

Data set [4] is described as follows: Kinetic aqueous solubility by laser-based nephelometry. The class given is physicochemical. The following applies: PBS buffer pH 7.4, 120 min, room temperature; relative to ZCZ011. As for the experimental part: Aqueous solubility assays. The kinetic aqueous solubility of the compounds is determined using laser-based nephelometry. Linear serial dilutions of each compound are prepared in PBS buffer (pH=7.4) from DMSO stock solution (10 mM) in a 384-well plate. The compound solutions are mixed and incubated for 120 minutes at room temperature, followed by approximating the precipitation points for each compound using light scattering (laser-based BMG Labtech NEPHELOstar PLUS microplate nephelometer). In some aspects, the final solutions may contain 0 mM, 55 mM, 135 mM, or 500 mM of mannitol.

The mark [5] stands for this setting: hMGL in E. coli lysate, 15 min preincubation, AHMMCE or VHMMCE substrate, read-out: MGL inhibition IC50.

T1 sequence (P21554 whole entry): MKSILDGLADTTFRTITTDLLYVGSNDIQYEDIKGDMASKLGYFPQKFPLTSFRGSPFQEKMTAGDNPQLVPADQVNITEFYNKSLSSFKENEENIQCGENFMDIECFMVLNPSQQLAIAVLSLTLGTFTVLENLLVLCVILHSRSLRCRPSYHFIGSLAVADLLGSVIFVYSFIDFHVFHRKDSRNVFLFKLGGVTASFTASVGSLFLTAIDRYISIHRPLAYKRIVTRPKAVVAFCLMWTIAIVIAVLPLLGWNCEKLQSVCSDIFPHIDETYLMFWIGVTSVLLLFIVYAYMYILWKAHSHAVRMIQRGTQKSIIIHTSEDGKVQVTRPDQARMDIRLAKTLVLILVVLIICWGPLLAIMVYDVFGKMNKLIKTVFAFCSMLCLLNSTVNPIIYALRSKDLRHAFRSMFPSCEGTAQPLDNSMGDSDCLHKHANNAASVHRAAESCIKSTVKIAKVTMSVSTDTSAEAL
human CB1 (hCB1), sequence (P21554 whole entry): as above

On to `O=[N+]([O-])CC(c1ccc(B(O)O)cc1)c1c(-c2ccc(N=C=S)cc2)[nH]c2ccccc12` (stereo not drawn) [Compound 6, (4-(1-(2-(4-isothiocyanatophenyl)-1H-indol-3-yl)-2-nitroethyl)phenyl)boronic acid], for which, in data set [1], the EC50 came to 57.2 nM.
Turning to `O=[N+]([O-])C[C@H](c1ccc(B(O)O)cc1)c1c(-c2ccccc2)[nH]c2ccccc12` (single isomer, unassigned) [Compound 2], in data set [1], the concentration giving a half-maximal response (EC50) was determined as 51.3 nM. Also, in data set [2] (setting [5]), the 50% inhibitory concentration (IC50) turned out to be 271 nM.
Take `O=[N+]([O-])CC(c1ccccc1)c1c(-c2ccc(S(=O)(=O)F)cc2)[nH]c2ccccc12` (stereo not drawn) [Compound 9, 4-(3-(2-nitro-1-phenylethyl)-1H-indol-2-yl)benzenesulfonyl fluoride]: the IC50 in data set [2] came to 32.3 nM.
With `O=[N+]([O-])CC(c1ccc(N=C=S)cc1)c1c(-c2ccccc2)[nH]c2ccccc12` (stereo not drawn) [Compound 10, 3-(1-(4-isothiocyanatophenyl)-2-nitroethyl)-2-phenyl-1H-indole], the 50% inhibitory concentration (IC50) in data set [2] (setting [5]) was 1160 nM.
As for `O=[N+]([O-])CC(c1cccc(B(O)O)c1)c1c(-c2ccccc2)[nH]c2ccccc12` (stereo not drawn) [Compound 4, (3-(2-nitro-1-(2-phenyl-1H-indol-3-yl)ethyl)phenyl)boronic acid], in data set [1], the EC50 was 40.8 nM. Besides, in data set [2] (setting [5]), the concentration for half-maximal inhibition (IC50) was found to be 979 nM. For the same compound, the “competition with CP-55,940” value in data set [3] is reported as “do not compete with CP-55,940”.
On to `O=[N+]([O-])CC(c1ccccc1)c1c(-c2ccccc2)[nH]c2ccccc12` (stereo not drawn) [GAT211, 3-(2-nitro-1-phenylethyl)-2-phenyl-1H-indole, reference compound], for which, in data set [2], the hMGL inhibition result is listed as “did not show any hMGL inhibition at concentrations up to 10 μM”.
Take `O=[N+]([O-])CC(c1ccc(B(O)O)cc1)c1c(-c2ccccc2)[nH]c2ccccc12` (stereo not drawn) [Compound 1, (4-(2-nitro-1-(2-phenyl-1H-indol-3-yl)ethyl)phenyl)boronic acid]: in data set [4], the “aqueous solubility compared to ZCZ011” value is above 100 fold. In addition, in data set [1], the concentration giving a half-maximal response (EC50) was found to be 102 nM. Also, the IC50 in data set [2] (setting [5]) was 63.5 nM. The “competition with CP-55,940” value in data set [3] is recorded as “do not compete with CP-55,940”.
Turning to `O=[N+]([O-])CC(c1ccccc1)c1c(-c2ccc(B(O)O)cc2)[nH]c2ccccc12` (stereo not drawn) [Compound 5, (4-(3-(2-nitro-1-phenylethyl)-1H-indol-2-yl)phenyl)boronic acid], in data set [1], the EC50 came out at 57 nM.
Regarding `Cc1ccc2c(C(C[N+](=O)[O-])c3cccs3)c(-c3ccccc3)[nH]c2c1` (stereo not drawn) [ZCZ011, 6-methyl-3-(2-nitro-1-(thiophen-2-yl)ethyl)-2-phenyl-1H-indole, reference compound], in data set [2], the hMGL inhibition entry is on record as “did not show any hMGL inhibition at concentrations up to 10 μM”.
Turning to `O=[N+]([O-])C[C@@H](c1ccc(B(O)O)cc1)c1c(-c2ccccc2)[nH]c2ccccc12` (single isomer, unassigned) [Compound 3], the EC50 in data set [1] was 37.5 nM. Further, in data set [1] (in words), the “allosteric modulation of 2-AG and CP-55,940 at CB1” value is “positive allosteric modulator of both 2-AG and CP-55,940”. In data set [1] (orthosteric ligand 2-AG, positive allosteric modulator), the “increase of potency of 2-AG at CB1” value is reported as ~ 2 fold. In addition, the “increase of potency of CP-55,940 at CB1” value in data set [1] (orthosteric ligand CP-55,940, positive allosteric modulator) is listed as ~ 2 fold. Moreover, the concentration for half-maximal inhibition (IC50) in data set [2] (setting [5]) turned out to be 58.8 nM.
As to `O=[N+]([O-])CC(c1ccccc1)c1c(-c2ccccc2)[nH]c2cc(B(O)O)ccc12` (stereo not drawn) [Compound 8, (3-(2-nitro-1-phenylethyl)-2-phenyl-1H-indol-6-yl)boronic acid], the concentration for half-maximal inhibition (IC50) in data set [2] (setting [5]) worked out at 46.8 nM.

As a reminder, the EC50 is the concentration needed to bring the measured effect to its halfway point. A word on the IC50: it is the concentration needed to halve the response being measured.

The record behind these values is patent US20260364098A1, “HETEROARYL COMPOUNDS AS ENDOCANNABINOID SYSTEM MODULATORS AND USES THEREOF” (Northeastern University, priority 2023, published 2026).
